In patent US8927709B2, “Hepatitis C virus inhibitors” (Enanta Pharmaceuticals, Inc., priority 2009, dated 2015):

System: HCV 1b genotype replicon
Assay: HCV genotype-1b replicon assay (qRT-PCR or luciferase)
Type: cell-based
Details: Hepatitis C virus, HCV 1b replicon cell lines (SGR 11-7 or Huh-luc/neo-ET), a/b entries tested as mixture of the two compounds, read-out: Genotype-1b replicon EC50 Range
From the text: HCV replicon cell lines (kindly provided by R. Bartenschlager) isolated from colonies as described by Lohman et. al. (Lohman et al. (1999) Science 285: 110-113, expressly incorporated by reference in its entirety) and used for all experiments. The HCV replicon has the nucleic acid sequence set forth in EMBL Accession No.: AJ242651, the coding sequence of which is from nucleotides 1801 to 8406.
The coding sequence of the published HCV replicon was synthesized and subsequently assembled in a modified plasmid pBR322 (Promega, Madison, Wis.) using standard molecular biology techniques. […]
EC50 values of single agent compounds and combinations were determined by HCV RNA detection using quantitative RT-PCR, according to the manufacturer's instructions, with a TAQMAN® One-Step RT-PCR Master Mix Reagents Kit (Cat# AB 4309169, Applied Biosystems) on an ABI Model 7500 thermocycler. The TaqMan primers used for detecting and quantifying HCV RNA were obtained from Integrated DNA Technologies. HCV RNA was normalized to GAPDH RNA levels in drug-treated cells, which was detected and quantified using the Human GAPDH Endogenous Control Mix (Applied Biosystems, AB 4310884E). […] Chemical agent cytotoxicity was evaluated using an MTS assay according to the manufacturer's directions (Promega). […]

| SMILES | EC50 [nM] |
| --- | --- |
| COC(=O)N[C@H](C(=O)N1CCC(c2nc3cc(-c4ccc(-c5c[nH]c([C@@H]6CCCN6C(=O)[C@@H](NC(=O)OC)C(C)C)n5)cc4)ccc3[nH]2)C1)C(C)C (some centres unmarked) [Example 343] | 1 to 10 |
| COC(=O)N[C@H](C(=O)N1CCC(c2nc(-c3ccc(-c4ccc(-c5c[nH]c([C@@H]6CCCN6C(=O)[C@@H](NC(=O)OC)C(C)C)n5)cc4)cc3)c[nH]2)C1)C(C)C (some centres unmarked) [Example 345] | < 1 |
